Patent publication US4336375A, “Cephalosporanic acid derivatives” (American Cyanamid Company, priority 1980, dated 1982)
In brackets after ≈: the same amount, converted by molar mass.

Assays:
[1] = test system: Klebsiella pneumoniae UR76-1; assay: In vitro MIC, agar dilution, Klebsiella pneumoniae UR76-1; format: cell-based; conditions: UR761; Klebsiella pneumoniae UR76-1; agar dilution, 35° C., 18 hours, nutrient agar; read-out: Minimal Inhibitory Concentration
In short: (§1)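 Compounds are serially diluted into conventional nutrient agar, the strains are inoculated by Steers replicator, and plates are read after incubation at 35° C. for 18 hours.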

[2] = test system: Pseudomonas aeruginosa PD05141; assay: In vitro MIC, agar dilution, Pseudomonas aeruginosa PD05141; format: cell-based; conditions: Pseudomonas aeruginosa, PD05141, 18 h, read-out: Minimal Inhibitory Concentration
In short: as §1

Klebsiella pneumoniae AD = assay: In vitro MIC, agar dilution, Klebsiella pneumoniae AD; format: cell-based; conditions: Klebsiella pneumoniae AD; agar dilution, 35° C., 18 hours, nutrient agar; read-out: Minimal Inhibitory Concentration
In short: as §1

[3] = test system: Staphylococcus aureus Q74-1; assay: In vitro MIC, agar dilution, Staphylococcus aureus Q74-1; format: cell-based; conditions: Q741; Staphylococcus aureus Q74-1; agar dilution, 35° C., 18 hours, nutrient agar; read-out: Minimal Inhibitory Concentration
In short: as §1

[4] = test system: Staphylococcus aureus Q74-6; assay: In vitro MIC, agar dilution, Staphylococcus aureus Q74-6; format: cell-based; conditions: Q746; Staphylococcus aureus Q74-6; agar dilution, 35° C., 18 hours, nutrient agar; read-out: Minimal Inhibitory Concentration
In short: as §1

Escherichia coli OSU75-1 = assay: In vitro MIC, agar dilution, Escherichia coli OSU75-1; format: cell-based; conditions: OSU751, 35° C., 18 hours, nutrient agar, read-out: Minimal Inhibitory Concentration
In short: as §1

[5] = test system: Pseudomonas aeruginosa UCS 76-13; assay: In vitro MIC, agar dilution, Pseudomonas aeruginosa UCS 76-13; format: cell-based; conditions: UCS7613; Pseudomonas aeruginosa UCS 76-13; agar dilution, 35° C., 18 hours, nutrient agar; read-out: Minimal Inhibitory Concentration
In short: as §1

Proteus vulgaris N74-1 = assay: In vitro MIC, agar dilution, Proteus vulgaris N74-1; format: cell-based; conditions: N741, 35° C., 18 hours, nutrient agar, read-out: Minimal Inhibitory Concentration
In short: as §1

[6] = test system: Klebsiella pneumoniae MA75-1; assay: In vitro MIC, agar dilution, Klebsiella pneumoniae MA75-1; format: cell-based; conditions: MA751; Klebsiella pneumoniae MA75-1; agar dilution, 35° C., 18 hours, nutrient agar; read-out: Minimal Inhibitory Concentration
In short: as §1

Serratia marcens QHC77-2 = assay: In vitro MIC, agar dilution, Serratia marcens QHC77-2; format: cell-based; conditions: QHC772; Serratia marcens QHC77-2; agar dilution, 35° C., 18 hours, nutrient agar; read-out: Minimal Inhibitory Concentration
In short: as §1

[7] = test system: Klebsiella pneumoniae W75-4; assay: In vitro MIC, agar dilution, Klebsiella pneumoniae W75-4; format: cell-based; conditions: W754; Klebsiella pneumoniae W75-4; agar dilution, 35° C., 18 hours, nutrient agar; read-out: Minimal Inhibitory Concentration
In short: as §1

Escherichia coli 311 [8] = assay: In vitro MIC, agar dilution, Escherichia coli 311; format: cell-based; conditions: 35° C., 18 hours, nutrient agar, read-out: Minimal Inhibitory Concentration
In short: as §1

Serratia K101 = assay: In vitro MIC, agar dilution, Serratia K101; format: cell-based; conditions: Serratia K101; agar dilution, 35° C., 18 hours, nutrient agar; read-out: Minimal Inhibitory Concentration
In short: as §1

Proteus morganii K72 = assay: In vitro MIC, agar dilution, Proteus morganii K72; format: cell-based; conditions: Morganella morganii; Proteus morganii K72; agar dilution, 35° C., 18 hours, nutrient agar; read-out: Minimal Inhibitory Concentration
In short: as §1

Escherichia coli 311 [9] = assay: In vivo systemic lethal infection of mice, Escherichia coli 311; design: species or system Charles River CD-1 mice; conditions: CD-1 mice
Excerpt: (§2) As shown in Table II these compounds show high in vivo antibacterial activity against Escherichia coli 311 and Klebsiella pneumoniae W-75-2 when administered by a single subcutaneous dose to groups of Charles River CD-1 mice, weighing about 20 g. each. The mice are infected intraperitoneally with a lethal dose of these bacteria.

Escherichia coli W75-1 = assay: In vitro MIC, agar dilution, Escherichia coli W75-1; format: cell-based; conditions: W751, 35° C., 18 hours, nutrient agar, read-out: Minimal Inhibitory Concentration
In short: as §1

[10] = test system: Pseudomonas aeruginosa 12-4-4; assay: In vitro MIC, agar dilution, Pseudomonas aeruginosa 12-4-4; format: cell-based; conditions: 1244; Pseudomonas aeruginosa 12-4-4; agar dilution, 35° C., 18 hours, nutrient agar; read-out: Minimal Inhibitory Concentration
In short: as §1

Serratia marcens K77-1 = assay: In vitro MIC, agar dilution, Serratia marcens K77-1; format: cell-based; conditions: K771; Serratia marcens K77-1; agar dilution, 35° C., 18 hours, nutrient agar; read-out: Minimal Inhibitory Concentration
In short: as §1

[11] = test system: Enterobacter aerogenes UR76-3; assay: In vitro MIC, agar dilution, Enterobacter aerogenes UR76-3; format: cell-based; conditions: Klebsiella aerogenes, UR763; Enterobacter aerogenes UR76-3; agar dilution, 35° C., 18 hours, nutrient agar; read-out: Minimal Inhibitory Concentration
In short: as §1

[12] = test system: Escherichia coli ESS22-31; assay: In vitro MIC, agar dilution, Escherichia coli ESS22-31; format: cell-based; conditions: ESS2231; Escherichia coli ESS22-31; agar dilution, 35° C., 18 hours, nutrient agar; read-out: Minimal Inhibitory Concentration
In short: as §1

[13] = test system: Enterobacter cloacae OSU75-2; assay: In vitro MIC, agar dilution, Enterobacter cloacae OSU75-2; format: cell-based; conditions: OSU752; Enterobacter cloacae OSU75-2; agar dilution, 35° C., 18 hours, nutrient agar; read-out: Minimal Inhibitory Concentration
In short: as §1

[14] = test system: Enterobacter cloacae MA75-1; assay: In vitro MIC, agar dilution, Enterobacter cloacae MA75-1; format: cell-based; conditions: MA751; Enterobacter cloacae MA75-1; agar dilution, 35° C., 18 hours, nutrient agar; read-out: Minimal Inhibitory Concentration
In short: as §1

[15] = test system: Klebsiella pneumoniae W75-2; assay: In vitro MIC, agar dilution, Klebsiella pneumoniae W75-2; format: cell-based; conditions: W752; Klebsiella pneumoniae W75-2; agar dilution, 35° C., 18 hours, nutrient agar; read-out: Minimal Inhibitory Concentration
In short: as §1

[16] = test system: Klebsiella pneumoniae W-75-2; assay: In vivo systemic lethal infection of mice, Klebsiella pneumoniae W-75-2; design: species or system Charles River CD-1 mice; conditions: CD-1 mice
Excerpt: as §2

Enterococcus SM77-15 = assay: In vitro MIC, agar dilution, Enterococcus SM77-15; format: cell-based; conditions: SM7715; Enterococcus SM77-15; agar dilution, 35° C., 18 hours, nutrient agar; read-out: Minimal Inhibitory Concentration
In short: as §1

Proteus rettgeri N76-1 = assay: In vitro MIC, agar dilution, Proteus rettgeri N76-1; format: cell-based; conditions: Providencia rettgeri, N761; Proteus rettgeri N76-1; agar dilution, 35° C., 18 hours, nutrient agar; read-out: Minimal Inhibitory Concentration
In short: as §1

[17] = test system: Pseudomonas aeruginosa G236; assay: In vitro MIC, agar dilution, Pseudomonas aeruginosa G236; format: cell-based; conditions: Pseudomonas aeruginosa G236; agar dilution, 35° C., 18 hours, nutrient agar; read-out: Minimal Inhibitory Concentration
In short: as §1

[18] = single subcutaneous dose 0.12 mg./kg.
[19] = single subcutaneous dose 0.25 mg./kg.
[20] = single subcutaneous dose 0.5 mg./kg.

SMILES: CO/N=C(\C(=O)NC1C(=O)N2C(C(=O)O)=C(CSc3nnc(-n4cccn4)n3N)CSC12)c1csc(N)n1 (stereo not drawn) [Compound I, 7-[2-(Syn-methoxyimino)-2-(2-aminothiazol-4-yl)acetamido]-3-[4-amino-5-(1-pyrazolyl)-1,2,4-triazol-3-ylthiomethyl]-3-cephem-4-carboxylic acid]
- MIC [1]: 0.5 µg/mL (≈ 0.866 µM)
- MIC [2]: 128 µg/mL (≈ 222 µM)
- MIC (Klebsiella pneumoniae AD): ≤ 0.12 µg/mL
- MIC [3]: 2 µg/mL (≈ 3.46 µM)
- MIC [4]: 64 µg/mL (≈ 111 µM)
- MIC (Escherichia coli OSU75-1): ≤ 0.12 µg/mL
- MIC [5]: 128 µg/mL (≈ 222 µM)
- MIC (Proteus vulgaris N74-1): ≤ 0.12 µg/mL
- MIC [6]: ≤ 0.12 µg/mL
- MIC (Serratia marcens QHC77-2): 1 µg/mL (≈ 1.73 µM)
- MIC [7]: ≤ 0.12 µg/mL
- MIC (Escherichia coli 311 [8]): ≤ 0.12 µg/mL
- MIC (Serratia K101): 0.5 µg/mL (≈ 0.866 µM)
- MIC (Proteus morganii K72): ≤ 0.12 µg/mL
- Alive/Total Mice Tested, 7 Days After Infection (Escherichia coli 311 [9]; [18]): 1/20
- Alive/Total Mice Tested, 7 Days After Infection (Escherichia coli 311 [9]; [19]): 6/20
- Alive/Total Mice Tested, 7 Days After Infection (Escherichia coli 311 [9]; [20]): 15/20
- Alive/Total Mice Tested, 7 Days After Infection (Escherichia coli 311 [9]; single subcutaneous dose 1 mg./kg.): 19/20
- MIC (Escherichia coli W75-1): ≤ 0.12 µg/mL
- MIC [10]: 64 µg/mL (≈ 111 µM)
- MIC (Serratia marcens K77-1): 0.5 µg/mL (≈ 0.866 µM)
- MIC [11]: ≤ 0.12 µg/mL
- MIC [12]: ≤ 0.12 µg/mL
- MIC [13]: 0.5 µg/mL (≈ 0.866 µM)
- MIC [14]: 128 µg/mL (≈ 222 µM)
- MIC [15]: ≤ 0.12 µg/mL
- Alive/Total Mice Tested, 7 Days After Infection ([16]; single subcutaneous dose 0.06 mg./kg.): 1/20
- Alive/Total Mice Tested, 7 Days After Infection [16, 18]: 2/20
- Alive/Total Mice Tested, 7 Days After Infection [16, 19]: 14/20
- Alive/Total Mice Tested, 7 Days After Infection [16, 20]: 19/20
- MIC (Enterococcus SM77-15): > 128 µg/mL
- MIC (Proteus rettgeri N76-1): ≤ 0.12 µg/mL
- MIC [17]: 64 µg/mL (≈ 111 µM)
